Legend:
Assay type in all cases: in vivo
[1] = tested on: greenhouse-grown maize; assay: Greenhouse study: effect of GA3 + GB dose on growth, seven days; conditions: GA3 120 mg/liter, GB 0 mg/liter; spray at V3; n = 7 plants
Method: (§1) In several of the following examples, corn was grown in greenhouse conditions, which are defined as follows. Seeds of a commercial hybrid variety were sown in Pro-Mix® BX (Pro-Mix is a registered trademark of Premier Horticulture Ltd.) with the addition of Osmocote (14-14-14) and gypsum in three-liter pots. Greenhouses were kept at 25±3° C. under a 16:8 hour photoperiod, with illumination at canopy level of ˜250 μmoles m^−2s^−1. Corn was typically fertigated with Peters 21-5-20+micronutrients, calcium ammonium nitrate and magnesium sulfate. Typical growth rates for corn under these conditions ranged from 4-5 cm/day.
(§2) In most greenhouse studies, spray applications were made. These applications were made in a track sprayer outfitted with a 4001E Teejet® nozzle (Teejet is available from and a registered trademark of Spraying Systems Co., Glendale Heights, Ill., USA) and applied at 40 psi. Although application volumes did vary between some studies, generally, 30 gallons/acre of spray solution was applied. Following spray applications, plants were returned to the greenhouse. Typically, experiments were blocked according to plant size, and a randomized complete block design (RCB) was used.
In a greenhouse study, plants were sprayed at V3 stage with solutions containing a non-ionic surfactant (0.25%, v/v) at 30 gallons of spray solution/acre and growth was followed for seven days.

[2] = tested on: corn plants; assay: Greenhouse study: growth of corn after V3 spray with GA3 or GB, nine days; conditions: non-stressed greenhouse; spray at V3; GA3 120 mg/liter, GB 3000 mg/liter; n = 7
Method: as §1, §2
In a greenhouse study conducted in Long Grove, Ill., corn plants were sprayed at V3 stage with solutions containing a non-ionic surfactant (0.25%, v/v) at 30 gallons of spray solution/acre and growth was followed for nine days.
Synergy was determined using the following formula, in which a synergy factor is calculated by the Abbott method: % Cexp=A+B−(AB/100), here % Cexp is the expected efficacy and “in which A and B are the increase in growth (or resistance to stress) levels given by the single [plant growth regulators]. If the ratio between the experimentally observed efficacy of the mixture Cobs and the expected efficacy of the mixture is greater than 1, synergistic interactions are present in the mixture” (Gisi, Synergistic Interaction of Fungicides in Mixtures, The American Phytopathological Society, 86:11, 1273-1279, 1996).
Based on a conservative approach, synergy was determined to be present at ratios of ≥1.10. When grown under non-stressed conditions, GA3 growth was synergized by the addition of 3,000 mg/liter glycine betaine (“GB”), with a synergy factor of 1.65 for growth and 1.68 for growth rate while dry weight/plant was not synergistic with a synergy factor of 0.95.

[3] = tested on: greenhouse-grown maize; assay: Leaf chlorophyll by SPAD meter, GA3 dose +/- GB; conditions: without or with GB 10000 mg/liter
Method: In the same study, leaf chlorophyll was monitored by measurements with a SPAD meter (Minolta Model 502; Ramsey, N.J.). In this study, the chlorophyll level in the most recently fully-expanded leaf was measured at five different points and the results averaged.

[4] = tested on: corn plants; assay: Field study Colby, KS 2015, yield; conditions: GA3 120 mg/liter, GB 10000 mg/liter, (S)-ABA 9 mg/liter
Description: In a field study conducted in Colby, Kans., corn plants were sprayed with solutions containing a non-ionic surfactant (0.25%, v/v) at 15 gallons of spray solution per acre.

[5] = tested on: hybrid corn; assay: Corn trial Arcadia, IA 2015, yield; conditions: field; spray at V7; GA3 120 mg/liter, GB 10000 mg/liter, (S)-ABA 9 mg/liter
Description: In a corn trial conducted in Arcadia, Iowa, hybrid corn was sown Apr. 30, 2015 and sprayed at V7 with solutions containing a non-ionic surfactant (0.25%, v/v) at 15 gallons of spray volume.

[6] = tested on: potted corn plants; assay: Acute drought stress greenhouse study, potted corn, 7 and 14 days
Method: In a separate acute drought stress greenhouse study conducted in Long Grove, Ill., corn plants were sprayed at V4 stage with solutions containing a non-ionic surfactant (0.25%, v/v) at 30 gallons of spray solution/acre and growth was determined by shoot height increase 7 and 14 days later. After treatment corn plants were not watered with the exception of one treatment of control (aqueous surfactant solution) that were watered as needed (well-watered control).

[7] = tested on: corn; assay: Field study Woodstock, Ill. 2014, corn growth
Method: A field study was conducted at Woodstock, Ill. in 2014. Seeds of a central corn belt hybrid with 111 days to maturity were sown on May 20, 2014. Plants were sprayed at V4 with solutions containing a non-ionic surfactant (0.25%, v/v) at 15 gallons of spray solution/acre. Growth was followed by measuring shoot height in centimeters for 60 plants in each replicate at 7 and 14 days post spraying.

[8] = tested on: corn; assay: Greenhouse study: Gibberellins, (S)-ABA and Glycine betaine on corn growth; conditions: GA3 or GA4 120 mg/liter, GB 10000 mg/liter, (S)-ABA 8.8 mg/liter
Method: as §1, §2
When gibberellins are combined with specific ratios of (S)-(+)-abscisic acid (“(S)-ABA”), a surprising enhancement of corn growth after application is often observed. The addition of GB to gibberellin+(S)-ABA spray combinations further increases the growth-promoting activity of the mixtures, as is shown in Table 6.

[9] = tested on: corn; assay: Field study Woodstock, IL 2015, height, ear counts and yield
Method: A field study was conducted at Woodstock, Ill. Seeds of a central corn belt variety with 103 days to maturity were sown and plants were sprayed at V5 with solutions containing a non-ionic surfactant (0.25%, v/v) at 15 gallons of spray solution/acre. Growth was followed by measuring shoot heights in centimeters 50 plants in each replicate at 7 and 13 days post-spraying. The number of kernels per kernel-row (average kernel number) as well as the number of kernel-rows (average row number) per ear was counted for 50 plants in each replicate 7 days before harvest. The harvest grain yield was corrected to 15% moisture.

[10] = acute drought stressed, 120 ppm GA3, 3000 ppm GB, spray at V4
[11] = field, spray at V4, GA3 120 mg/liter, GB 10,000 mg/liter
[12] = field, spray at V5, GA3 120 mg/liter, GB 10000 mg/liter, (S)-ABA 9 mg/liter

C=C1C[C@]23C[C@@]1(O)CC[C@H]2[C@@]12C=C[C@H](O)[C@@](C)(C(=O)O1)[C@H]2[C@@H]3C(=O)O [GA3, gibberellic acid]
Growth Rate [1]: 4.86 cm/day
Plant Growth over 7 days [1]: 34.01 cm
Dry Weight/Plant [2]: 2.92 g
Growth Rate [2]: 4.76 cm/day
Growth over 9 days [2]: 42.9 cm
Chlorophyll (SPAD reading) 14 days ([3]; GA3 30 mg/liter): 33.1 SPAD reading
Chlorophyll (SPAD reading) 14 days ([3]; GA3 60 mg/liter): 32.9 SPAD reading
Chlorophyll (SPAD reading) 14 days ([3]; GA3 120 mg/liter): 31.6 SPAD reading
Chlorophyll (SPAD reading) 14 days ([3]; GA3 240 mg/liter): 31.1 SPAD reading
Yield [4]: 188.9 bu/acre
Yield [5]: 185.8 bu/acre
Shoot Growth 7 days after treatment as Percent Increase as compared to Drought Stressed Control [6, 10]: 116.9%
Shoot Growth 14 days after treatment as Percent Increase as compared to Drought Stressed Control [6, 10]: 118.7%
increased growth under drought as compared to controls ([6]; at 7 days): 16.9%
increased growth under drought as compared to controls ([6]; at 14 days): 18.7%
Growth Rate from 7-14 days [7, 11]: 4.89 cm/day
Height at 7 days post spray [7, 11]: 68.2 centimeters
Height at 14 days post spray [7, 11]: 102.4 centimeters
growth increase over the control plants (surfactant alone) ([7]; one week after treatment application): 6.9%
7 days Change in Height [8]: 32.5 cm
14 days Change in Height [8]: 62.8 cm
Dry Weight [8]: 8.1 g
Average row number per ear ([9]; counted 7 days before harvest): 16.8
Height at 7 days post spray [9, 12]: 69.6 cm
Height at 13 days post spray [9, 12]: 88.6 cm
Yield ([9]; grain yield corrected to 15% moisture): 222.8 bu/acre
